Reference: US8895599B2, “Lipoprotein lipase-activating compositions comprising benzene derivates” (Otsuka Pharmaceutical Factory, Inc., priority 2008, dated 2014)

Key:
[1] = tested on: LPL; test: Test for LPL activity-increasing effect in normal rats (skeletal muscle LPL activity); assay type: in vivo; details: every day for 1 week, SD rats, soleus muscle, 4 h after administration
Description: Test for LPL Activity-Increasing Effect in Normal Rats
6-week-old SD rats (purchased from Charles River Japan) were used as subjects. The rats were divided into groups according to body weight at the age of 5 weeks. The rats in each test group were orally administered with a 5% gum arabic suspension in an amount of 5 ml/kg of body weight, the suspension containing the test compound of the invention in such an amount that the dose of the compound of the invention became 30 mg/kg of body weight in one group and 100 mg/kg of body weight in another group. The rats in a control group were orally administered with a 5% gum arabic suspension (not containing the test compound of the invention) in an amount of 5 ml/kg of body weight. Each sample suspension was orally administered every day at a specific time of day for 1 week starting when the rats reached the age of 6 weeks.
Four hours after the administration of the sample suspension, skeletal muscle tissues of the rats were collected, then freeze-clamped and stored under liquid nitrogen. LPL activity in the skeletal muscle tissues was measured by the following method.
The soleus muscle was homogenized in a chilled solution of 0.05 mol/L NH4OH—NH4Cl buffer (pH 8.5) containing 0.5 U/mL heparin at 1 mL/100 mg of tissue wet weight. After standing on ice for 60 min with vigorous mixing at intervals of 15 min, the homogenate was centrifuged at 3000 rpm and 4° C. for 10 min and the supernatant was separated.
The substrate solution was prepared by mixing 2 μCi of glycerol tri[1-^14C]oleate, 0.133 g of unlabeled triolein, 0.9 mL of 1% Triton X-100, and 0.9 mL of 4% bovine serum albumin. in 0.2 mol/L Tris-HCl buffer (pH 8.6) and 10.2 mL of 0.2 mol/L Tris-HCl buffer (pH 8.6). The mixture was emulsified by sonication on ice for 3 min.
In a glass test tube, 0.1 mL of the tissue extract, 0.05 mL of heat-inactivated rat serum and 0.15 mL of 4% bovine serum albumin in 0.2 mol/L Tris-HCl buffer (pH 7.4) were mixed. Enzyme reaction was started by adding 0.2 mL of the substrate solution and was carried out for 30 min. at 37° C.
The reaction was stopped by addition of 2 mL of 1.5 mol/L H2SO4/2-propanol (1:40, v/v), and 1 mL of distilled water and 3 mL of hexane were added into the test tube. After vigorously shaking for 10 min. at room temperature, the test tube was centrifuged for 10 min. at 3000 rpm.
The upper layer (3.5 mL) was collected in a new test tube and mixed with 1 mL of 0.1 mol/L KOH.
The test tube was vigorously shaken for 10 min. at room temperature and then centrifuged for 10 min. at 3000 rpm.
After removing the upper layer, 1 mL of the lower layer (water phase) was transferred into a vial for counting, neutralized with 50 μL of 1.3 mol/L HCl and mixed with 4 mL of scintillator. The radioactivity was measured using a liquid scintillation counter.
The LPL activity increase (%) was calculated from the measured values of LPL activity in the control group and test groups according to the following formula: LPL activity increase (%)=(Test group average value)/(Control group average value)×100−100

[2] = Anti-obesity test using AKR mice (high-fat feed); assay type: in vivo; details: 1 mg per gram of feed in high-fat feed, 7 weeks, AKR/J mice, relative to high-fat feed control group
From the text: Anti-Obesity Test Using AKR Mice
Furthermore, this test enables the evaluation of therapeutic effects on diabetes. That is, it is reported that insulinemia can be observed in AKR/J mice when they are fed with a high-fat diet (see Am. J. Physiol. 266 (5 Pt 2), May 1994: R1423-8). It is thus known that insulinemia is strongly associated with diabetes (see, for example, J. Cardiovasc. Nurs. 16 (2), January 2002: 17-23). Therefore, this test can verify the therapeutic effects of the compounds of the present invention, used as test compounds, on diabetes.
For rat feed, powdered CRF-1 (Charles River Formula 1, manufactured by Oriental Yeast, Co., Ltd.) was used as normal feed. As high-fat feed, that prepared by blending CRF-1 with 18% safflower oil (Oriental Yeast, Co., Ltd.) was used.
Test substances were blended with the high-fat feed in an amount of 1 mg per gram of CRF-1.
AKR/J mice (from CLEA Japan, Inc.) were purchased at the age of 4 weeks. They were roughly divided into 2 groups according to body weight when the mice reached 5 weeks old. During this period, all mice were given the normal feed.
Subsequently, the mice of one group (8 mice) continued to be fed with the normal feed (normal feed group). The mice of the other group (8×(the number of the test substances+1) mice) were given the high-fat feed (high-fat feed group).
The body weight of the mice of each group was measured daily. […] These mice were further reared for 7 weeks (“test substances+high-fat feed groups”; n=8 per type of test substance). Specifically, the administration of the test substances was continued for 7 weeks. A group of mice to which high-fat feed containing no test substance was continued to be given was used as a control (high-fat feed control group; n=8).
Four hours after the feeding on the last day of the 7-week test (the last day of the test), the body weight of the mice of the “test substances+high fat feed groups” was measured. Blood was collected from the abdominal aorta of the mice using a heparinized syringe, and the leptin and insulin levels in the plasma were measured using an Elisa kit (produced by Morinaga). The mice of the other groups (normal feed group and high-fat feed control group) were reared till the last day of the test as above, and 4 hours after the last feeding on the last day of the test the measurements were performed according to the same procedures.
The average values of the test results (body weight, leptin level, and insulin level) of the test substances+high-fat feed groups to which the compounds prepared in Examples (Examples 10 and 58) were used as test substances (hereinbelow referred to as the “Example Compound 10-mixed high-fat feed group” and “Example Compound 58-mixed high-fat feed group”) were compared with the respective average values (standard values) of the results obtained from the mice of the high-fat control group to obtain the variations (differences). The differences were expressed as percentages in relation to the standard values. The values thus calculated were referred to as “weight change (%)”, “leptin level change (%)”, and “insulin level change (%)”. In the table below, the symbols “−” (minus) indicate that the differences are negative relative to the standard values.

Compound: COc1cc(-c2cn3ccccc3n2)ccc1OCc1ccc(Cl)cc1 [Example 10]
- Increase of skeletal muscle LPL activity compared to control (%) ([1]; 30 mg/kg oral): 22%
- Increase of skeletal muscle LPL activity compared to control (%) ([1]; 100 mg/kg oral): 55%
- Weight Change (%) [2]: −15%
- Insulin level change (%) ([2]; plasma): −54%
- Leptin level change (%) ([2]; plasma): −68%
- melting point: 141 to 143 °C
